Results as given in patent publication US11446300B2 (Alexion Pharmaceuticals, Inc., priority 2015, dated 2022).
Like-named read-outs stand apart in the source and are kept apart here.

What was measured:
[1] = test system: IL2, IL4, IL6 signaling; experiment: Phase I study, whole blood assay of IL2, IL4, IL6 signaling; format: in vivo; conditions: Homo sapiens; Patient 1; 65 mg PO QD
Method: (§1) Pharmacokinetics (“PK”), pharmacodynamics (“PD”), and safety were monitored. Response was assessed by standard criteria. The level of inhibition of SYK and JAK was determined using a variety of whole blood assays measuring signaling via receptors for the B-cell antigen, IL2, IL4, IL6, and GM-CSF. Serum markers of tumor burden, including CCL3, CCL4, and other markers of inflammation (02M and CRP), were also being measured.

[2] = test system: GM-CSF signaling; experiment: Phase I study, whole blood assay of GM-CSF signaling; format: in vivo; conditions: Homo sapiens; Patient 1; 65 mg PO QD
Method: as §1

[3] = test system: U2932; experiment: Combination synergy, Cell Titer Glo, 72 hours; format: cell-based; conditions: Homo sapiens
Method: (§2) Synergistic anti-tumor activity in DLBCL cell lines was determined using the Cell Titer Glo assay. Briefly, 5,000 cells were plated in 96 well plates in complete tissue culture media. […] Cells were incubated with or without drug for 72 hours in a 37° C. tissue culture incubator prior to evaluation by CellTiter Glo as per the manufacturer protocol (Promega). Synergy was evaluated by calculating combination index score, as described elsewhere (Jacquement et al, Molecular Cancer 2012) following IC50 determination using Prism software. The compounds are commercially available or are made according to synthetic methods known to those skilled in the art.

[4] = test system: TOLEDO; experiment: Combination synergy, Cell Titer Glo, 72 hours; format: cell-based; conditions: Homo sapiens
Method: as §2

CCS(=O)(=O)N1CCN(c2ccc(Nc3ncc(C(N)=O)c(NC4CC4)n3)cc2)CC1 [Cerdulatinib, 4-(cyclopropylamino)-2-(4-(4-(ethylsulfonyl)piperazin-1-yl)phenylamino)pyrimidine-5-carboxamide]
inhibition at 65 mg [1]: 60 to 100%
inhibition at 65 mg [2]: ~20%
IC50 ([3]; U2932, 72 h, read-out: IC50): 3.73 µM
IC50 ([3]; U2932 cell line, read-out: IC50 value): 3.73 µM
IC50 [4]: 5.1 µM
